# Source: PMC9572942, “The Discovery of Small Allosteric and Active Site Inhibitors of the SARS-CoV-2 Main Protease via Structure-Based Virtual Screening and Biological Evaluation” (Molecules, 2022)
# Experiments:
# [1] = molecular target: T1, SARS-CoV-2 M^pro enzyme (Severe acute respiratory syndrome coronavirus 2, UniProt P0DTD1); assay: FRET-based enzyme assay and IC50 determination; assay type: biochemical; conditions: 4.6 μM enzyme, HEPES pH 6.5
# [2] = molecular target: T1, SARS-CoV-2 M^pro enzyme; assay: Inhibition kinetic study (Lineweaver–Burk, FRET assay); assay type: biochemical; conditions: from slope of Lineweaver–Burk curves vs. inhibitor concentration
smiles,measurement,setting,value
O=C(CSc1cnc2ccccc2n1)NC1CCCC1 [CB03],IC50,[1],301 ± 10 µM
same,Ki,[2],256 µM
